In patent publication US20150259403A1, “Methods and Pharmaceutical Compositions for Treatment of Gastrointestinal Stromal Tumors” (INSERM (INSTITUT NATIONAL DE LA SANTÉ ET DE LA RECHERCHE …, priority 2012, published 2015):
Entries after “also recorded” stand apart in the source; their conditions may differ.

System: RBPMS2 transcript level in GIST882 cells
Assay: RBPMS2 transcript level by quantitative RT-PCR in GIST882 cells after inhibitor treatment
Format: cell-based, human
Experimental: For quantitative RT-PCR analysis, gene expression levels were measured using the LightCycler technology (Roche Diagnostics). […] Each sample was assayed in three independent experiments in triplicate. Expression levels were determined with the LightCycler analysis software (version 3.5) relative to standard curves. Data were represented as the mean level of gene expression relative to the expression of the reference gene HPRT (Roche Diagnostic). For cell culture experiments, RNA isolation was done with the RNeasy Mini kit (Qiagen) and quantitative RT-PCR was performed using Power Sybergreen (Applied biosystems). Data were represented as the mean level of gene expression relative to the expression of the reference genes ABL, TTC1 and UBC for the comparison of RBPMS2 expression between different cell lines and GAPDH and ACTIN for GIST882 cells, which were treated with either Imatinib or U0126.
The human GIST cell line GIST882 was maintained in DMEM (GIBCO) supplemented with 10% Fetal Bovine Serum (FBS), 2% Penicilline-Streptomycin (Lonza) and incubated with 1 μM of Imatinib (inhibitor of KIT activity) (LC Laboratory) or 5 μM of U0126 (MEK inhibitor) (Sigma-Aldrich), as previously described (Gromova et al., 2011).

Compound | RBPMS2 transcript (mRNA) level (1 μM Imatinib vs DMSO control, 6, 24 and 48 h) | RBPMS2 transcript (mRNA) level (5 μM U0126 vs DMSO control, 6, 24 and 48 h)
Cc1ccc(NC(=O)c2ccc(CN3CCN(C)CC3)cc2)cc1Nc1nccc(-c2cccnc2)n1 [Imatinib] | No significant changes; also recorded: not influenced | –
N#CC(=C(/N)Sc1ccccc1N)/C(C#N)=C(\N)Sc1ccccc1N [U0126] | – | No significant changes; also recorded: not influenced
